Legend:
HeLa cells [1] = assay: TUNEL assay; format: cell-based, human; conditions: 10 μM, 12 and 24 h
Experimental: To further define the mechanism of cell death caused by compound 9n, HeLa cells were treated with compound 9n at 10 μM from 12 to 24 h and the DNA fragmentation was measured by the TUNEL assay. TUNEL (terminal-deoxynucleotidyl transferase meditated nick end labeling) is a common method for identifying apoptotic cells in situ by detecting DNA fragmentation. When the genomic DNA is broken, the exposed 3ʹ-OH at the end of deoxynucleotide transfer as the catalytic plus green fluorescent probes fluorescein (FITC) labeled dUTP, which can be detected by fluorescence microscopy or flow cytometry, as indicated by a green color (in the web version). The results are illustrated in Figure 4. […] The results were in good agreement with the previous experiments.
The TUNEL method was performed to label the 3′-end of fragmented DNA of the apoptotic HeLa cells. The cells treated as indicated were fixed with 4% paraformaldehyde phosphate buffer saline, rinsed with PBS, then permeabilized by 0.1% Triton X-100 for FITC end-labeling the fragmented DNA of the apoptotic HeLa cells using TUNEL cell (Beyotime, Jiangsu, China) apoptosis detection kit. The FITC-labeled TUNEL-positive cells were imaged under a fluorescent microscopy by using 488 nm excitation and 530 nm emission.

HL-7702 = assay: MTT cytotoxicity assay, HL-7702 normal cells; format: cell-based; conditions: L02, 48 h, normal human cells, mean ± SD, three independent experiments
SK-OV-3 = assay: MTT cytotoxicity assay, SK-OV-3; format: cell-based; conditions: Homo sapiens, 48 h, mean ± SD, three independent experiments
HeLa cells [2] = assay: JC-1 mitochondrial membrane potential staining; format: cell-based, human; conditions: 10 μM, 12 and 24 h
Source text: Apoptosis plays an important role in cancer, since its induction in tumor cells is essential for successful treatment. Mitochondria play key roles in apoptosis through the release of pro-apoptotic factors such as cytochrome c and apoptosis-inducing factor [19, 20]. In order to further investigate the apoptosis-inducing effect of target compound 9n, mitochondrial membrane potential changes were designed and detected, using the fluorescent probe JC-1. […] In the control cells, JC-1 could aggregate in mitochondria and present high red fluorescence. However, in cells undergoing apoptosis, where the mitochondrial potential has collapsed, JC-1 exists in the cytosol as a monomer that emits green fluorescence. HeLa cells treated with compound 9n at 10 μM from 12 to 24 h were stained with JC-1 and cells not treated with the compound 9n were used as control for 24 h. […]
General procedure for mitochondrial membrane potential staining: JC-1 probe was employed to measure mitochondrial depolarization in […]. […] Mitochondrial membrane potentials were monitored by determining the relative amounts of dual emissions from mitochondrial JC-1 monomers or aggregates using an Nikon ECLIPSETE2000-S fluorescent microscope. Mitochondrial depolarization is indicated by an increase in the green/red fluorescence intensity ratio.

HeLa cells [3] = assay: Intracellular Ca2+ release (Fluo-3/AM); format: cell-based, human; conditions: 10 μM, 24 h
Source text: Mitochondria have also been implicated as a source of ROS during apoptosis. […] We herein studied whether the loss of mitochondrial transmembrane potential resulting in the generation of ROS measured as described in our previous papers , using the fluorescent probe 2,7-dichlorofluorescein diacetate (DCF-DA) determined by fluorescence microscopy. […] Calcium has long been recognized as a significant participant in cell apoptosis. Therefore, we investigated whether compound 9n inducing cell death was involved in the production of Ca^2+. To investigate the effect of compound 9n on calcium release, HeLa cells treated with compound 9n at 10 μM for 24 h were loaded with the Ca^2+ indicator Fluo-3-acetoxymethyl-ester (Fluo-3/AM, 5 µM; Beyotime, Jiangsu, China).

HeLa cells [4] = assay: Hoechst 33258 staining; format: cell-based, human; conditions: 10 μM, 12 and 24 h
Experimental: Hoechst 33258 which stains the cell nucleus, is a membrane permeable dye with blue fluorescence. Live cells with uniformly light blue nuclei were obviously detected under the fluorescence microscope after treatment with Hoechst 33258 whereas apoptotic cells had bright blue nuclei due to karyopyknosis and chromatin condensation. However, the nuclei of dead cells could not be stained. HeLa cells treated with compound 9n at 10 μM from 12 to 24 h were stained with Hoechst 33258. HeLa cells not treated with compound 9n were used as control for 24 h.
General procedure for Hoechst 33258 staining: cells grown on a sterile cover slip in six-well tissue culture plates were treated with compounds for a certain range of time. The culture medium containing compounds was removed, and the cells were fixed in 4% paraformaldehyde for 10 min. After being washed twice with PBS, the cells were stained with 0.5 mL of Hoechst 33258 (Beyotime, Jiangsu, China) for 5 min and then again washed twice with PBS. The stained nuclei were observed under a Nikon ECLIPSETE2000-S fluorescence microscope using 350 nm excitation and 460 nm emission.

MGC-803 = assay: MTT cytotoxicity assay, MGC-803; format: cell-based; conditions: Homo sapiens, 48 h, mean ± SD, three independent experiments

## CC(C)c1ccc2c(c1)CCC1[C@](C)(C(=O)NC(=S)N[C@H](Cc3ccccc3)C(=O)Nc3ccccn3)CCC[C@]21C (stereo partly drawn) [Compound 9n, (1R,4aS)-7-Isopropyl-1,4a-dimethyl-N-(((R)-1-oxo-3-phenyl-1-(pyridin-2-ylamino)propan-2-yl)carbamothioyl)-1,2,3,4,4a,9,10,10a-octahydrophenanthrene-1-carboxamide]
HeLa cells [1]
  DNA fragmentation by TUNEL: significantly induced apoptosis
HL-7702
  IC50: 39.6 ± 1.47 µM
SK-OV-3
  IC50: 19.6 ± 1.87 µM
HeLa cells [2]
  mitochondrial membrane potential change (JC-1): strong green fluorescence
HeLa cells [3]
  intracellular Ca2+ release: stronger green fluorescence
HeLa cells [4]
  apoptosis by Hoechst 33258 staining: typical apoptotic morphology
MGC-803
  IC50: 16.9 ± 1.56 µM

Source: paper PMC4519859, “Synthesis and Biological Evaluation of Novel Dehydroabietic Acid Derivatives Conjugated with Acyl-Thiourea Peptide Moiety as Antitumor Agents” (International Journal of Molecular Sciences, 2015)
